A word on the inhibition: it is the percentage by which the read-out fell short of the control. Usually IC50 stands for the concentration that gives 50% inhibition. By EC50 is commonly meant the concentration giving half of the maximal effect.

Here are results for 10 compounds from ChEMBL document CHEMBL3739297, “Cross metathesis with hydroxamate and benzamide BOC-protected alkenes to access HDAC inhibitors and their biological evaluation highlighted intrinsic activity of BOC-protected dihydroxamates” (Bioorg Med Chem Lett, 2016).

Series [1] has as its target T1, Histone deacetylase (Homo sapiens) (UniProt Q13547+O15379+Q9UBN7+Q92769+Q9UQL6+Q8WUI4+Q9BY41+Q96DB2+P56524+Q9UKV0+Q969S8). Nature of the series: Inhibition of HDAC in human MeT-5A cells assessed as hisone H3 acetylation after 16 hrs by BRET assay. Type of series: cell-based.
A short description of series [2]: Cytotoxicity against human MeT-5A cells. The series is classed as cell-based.
The species named for series [3] is Homo sapiens. In words: Selectivity index, ratio of IC50 for HDAC1 (unknown origin) to IC50 for HDAC6 (unknown origin).
For the next series, the target named is Histone deacetylase 1 (Homo sapiens, UniProt Q13547). Nature of the series: Inhibition of HDAC1 (unknown origin) by fluorimetric assay.
Histone deacetylase 1, sequence (Q13547 whole entry): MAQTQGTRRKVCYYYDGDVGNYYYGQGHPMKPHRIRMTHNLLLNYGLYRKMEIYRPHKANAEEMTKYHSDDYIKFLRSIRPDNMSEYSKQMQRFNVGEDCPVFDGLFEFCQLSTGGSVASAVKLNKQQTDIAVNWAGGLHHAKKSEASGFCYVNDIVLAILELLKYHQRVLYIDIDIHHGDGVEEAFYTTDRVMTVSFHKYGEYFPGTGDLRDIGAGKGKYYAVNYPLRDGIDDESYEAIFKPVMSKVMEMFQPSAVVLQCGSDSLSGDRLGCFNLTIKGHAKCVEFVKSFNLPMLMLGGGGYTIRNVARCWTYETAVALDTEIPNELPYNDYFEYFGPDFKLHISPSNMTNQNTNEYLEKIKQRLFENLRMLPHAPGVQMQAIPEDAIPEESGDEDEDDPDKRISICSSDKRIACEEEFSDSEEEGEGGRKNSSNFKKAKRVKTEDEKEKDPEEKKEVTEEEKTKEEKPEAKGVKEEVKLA
Series [4] addresses T1, Histone deacetylase (Homo sapiens). The following applies: HeLa, at 12.5 µM.
Description: Inhibition of human HDAC in HeLa cells nuclear extract at 12.5 uM by fluorimetric assay
A further series addresses Histone deacetylase 3 (Homo sapiens, UniProt O15379). In words: Inhibition of HDAC3 (unknown origin) by fluorimetric assay.
For another series, the system named is HepG2. Nature of the series: Antiproliferative activity against human HepG2 cells assessed as cell proliferation after 72 hrs by MTT assay. Type of series: functional. The arrangement: concentration or dose not given beside the values.
Series [5] is filed under the species Homo sapiens. In words: Selectivity index, ratio of IC50 for HDAC2 (unknown origin) to IC50 for HDAC6 (unknown origin).
The target in series [6] is T1, Histone deacetylase (Homo sapiens). In words: Inhibition of HDAC in human MeT-5A cells assessed as hisone H3 acetylation at 100 uM after 16 hrs by BRET assay. Type of series: cell-based. In general terms: BRET reads energy transfer from a luciferase to a nearby fluorophore.
The target of another series is Histone deacetylase 2 (Homo sapiens, UniProt Q92769). In words: Inhibition of HDAC2 (unknown origin) by fluorimetric assay.
Histone deacetylase 2, sequence (Q92769 whole entry): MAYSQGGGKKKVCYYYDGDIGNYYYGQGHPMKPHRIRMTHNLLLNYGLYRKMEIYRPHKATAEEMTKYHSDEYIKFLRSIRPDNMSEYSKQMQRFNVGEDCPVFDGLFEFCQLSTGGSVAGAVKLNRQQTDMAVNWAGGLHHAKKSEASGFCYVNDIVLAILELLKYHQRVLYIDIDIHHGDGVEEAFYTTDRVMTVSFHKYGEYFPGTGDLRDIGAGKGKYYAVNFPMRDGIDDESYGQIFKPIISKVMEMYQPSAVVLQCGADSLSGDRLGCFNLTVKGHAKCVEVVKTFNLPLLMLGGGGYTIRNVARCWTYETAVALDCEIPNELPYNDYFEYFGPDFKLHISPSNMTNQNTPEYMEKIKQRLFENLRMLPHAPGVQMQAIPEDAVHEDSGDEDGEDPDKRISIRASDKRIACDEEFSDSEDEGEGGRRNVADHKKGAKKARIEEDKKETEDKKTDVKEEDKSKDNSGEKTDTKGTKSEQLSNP
The target in series [7] is T2, Protein deacetylase HDAC6 (Homo sapiens, UniProt Q9UBN7).
T2 sequence (Q9UBN7 whole entry): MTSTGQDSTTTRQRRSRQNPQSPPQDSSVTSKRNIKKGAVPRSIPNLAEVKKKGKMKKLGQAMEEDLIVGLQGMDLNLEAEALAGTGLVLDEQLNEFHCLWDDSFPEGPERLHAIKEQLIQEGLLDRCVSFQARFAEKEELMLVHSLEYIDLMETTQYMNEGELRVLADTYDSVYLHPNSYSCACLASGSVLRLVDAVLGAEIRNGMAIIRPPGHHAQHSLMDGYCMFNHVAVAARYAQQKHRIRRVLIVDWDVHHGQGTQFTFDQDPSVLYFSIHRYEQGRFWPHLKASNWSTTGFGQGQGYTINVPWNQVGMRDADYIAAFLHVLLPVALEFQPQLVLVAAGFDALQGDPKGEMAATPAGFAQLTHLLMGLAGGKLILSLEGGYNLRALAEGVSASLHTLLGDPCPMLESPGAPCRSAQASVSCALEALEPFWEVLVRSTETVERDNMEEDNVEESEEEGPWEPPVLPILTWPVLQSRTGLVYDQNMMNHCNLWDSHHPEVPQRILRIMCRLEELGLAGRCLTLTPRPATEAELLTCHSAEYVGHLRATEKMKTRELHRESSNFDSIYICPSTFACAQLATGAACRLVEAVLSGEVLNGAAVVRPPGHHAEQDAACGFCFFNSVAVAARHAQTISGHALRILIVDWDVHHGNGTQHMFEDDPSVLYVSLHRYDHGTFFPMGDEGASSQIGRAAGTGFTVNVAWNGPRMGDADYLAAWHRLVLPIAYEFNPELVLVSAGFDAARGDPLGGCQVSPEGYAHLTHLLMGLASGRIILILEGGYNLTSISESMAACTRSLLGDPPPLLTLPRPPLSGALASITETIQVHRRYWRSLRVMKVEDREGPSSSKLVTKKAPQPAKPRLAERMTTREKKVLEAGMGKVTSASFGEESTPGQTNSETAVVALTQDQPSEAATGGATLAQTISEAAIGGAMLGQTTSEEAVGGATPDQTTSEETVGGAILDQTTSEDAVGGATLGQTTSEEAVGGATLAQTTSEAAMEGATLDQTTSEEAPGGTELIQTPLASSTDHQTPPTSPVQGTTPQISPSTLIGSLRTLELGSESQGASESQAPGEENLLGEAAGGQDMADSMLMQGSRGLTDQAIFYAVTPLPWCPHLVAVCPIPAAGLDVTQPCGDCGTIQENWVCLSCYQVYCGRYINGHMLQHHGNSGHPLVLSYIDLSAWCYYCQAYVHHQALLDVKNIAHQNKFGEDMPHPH
In words: Inhibition of HDAC6 in human HeLa cells assessed as inhibition of tubulin deacetylation incubated for overnight by cELISA. Type of series: cell-based.

For another series, the system named is MCF7. In words: Antiproliferative activity against human MCF7 cells assessed as cell proliferation after 72 hrs by MTT assay. The arrangement: concentration or dose not given beside the values. Type of series: functional.
Series [8] has as its target T2, Protein deacetylase HDAC6. Nature of the series: Inhibition of HDAC6 (unknown origin) by fluorimetric assay.

Each structure is given as a SMILES string. Calls of active or inactive are those of the source. The rule behind the calls is not given here.

Histone deacetylase 3, sequence (O15379 whole entry): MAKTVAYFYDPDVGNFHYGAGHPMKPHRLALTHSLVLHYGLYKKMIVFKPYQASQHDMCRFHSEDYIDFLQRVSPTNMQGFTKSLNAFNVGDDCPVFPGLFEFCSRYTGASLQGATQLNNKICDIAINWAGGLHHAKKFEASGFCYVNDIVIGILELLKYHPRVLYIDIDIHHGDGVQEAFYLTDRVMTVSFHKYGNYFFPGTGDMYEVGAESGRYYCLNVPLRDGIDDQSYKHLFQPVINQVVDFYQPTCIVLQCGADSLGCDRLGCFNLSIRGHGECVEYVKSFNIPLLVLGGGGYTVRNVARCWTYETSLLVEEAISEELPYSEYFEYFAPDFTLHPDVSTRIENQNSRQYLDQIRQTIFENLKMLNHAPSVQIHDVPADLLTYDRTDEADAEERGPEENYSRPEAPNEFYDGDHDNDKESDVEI

For `CC(C)(C)OC(=O)ON(C(=O)CCCCCCC(=O)N(OC(=O)OC(C)(C)C)C(=O)OC(C)(C)C)C(=O)OC(C)(C)C`, the inhibition result in [1] is “Active”. Further, the Activity entry in series [2] was “Non-toxic”; in series [6], 17 mU. For the same compound, the Ratio IC50 in the series filed under Homo sapiens [3] and in the series filed under Homo sapiens [5] was 10 throughout. In addition, the half-maximal inhibitory concentration (IC50) was 30.6 µM on Histone deacetylase 1, above 100 µM against Histone deacetylase 3, 29.8 µM against Histone deacetylase 2 and 3.39 µM in [8]. This compound also returned an inhibition in series [4] of 60%. For the same compound, the Cell proliferation in the series on HepG2 came to 108%; in the series with MCF7, 92%. Moreover, the EC50 in series [7] was found to be 5 µM.
`CC(=O)Nc1ccc(C(=O)Nc2ccccc2N)cc1` [TACEDINALINE]: the Activity result in series [2] is “Non-toxic”. Also, the inhibition in series [4] came out at 42%.
Consider `Nc1ccccc1NC(=O)CCCCCCC(=O)Nc1ccccc1N`, for which, in [1], the inhibition entry was “Active”. The Activity entry in series [2] is reported as “Non-toxic”. The Cell proliferation in the series with HepG2 is 114%; with MCF7, 92%.
In the case of `C=CCCC(=O)Nc1ccccc1NC(=O)OC(C)(C)C`, the results for the Cell proliferation in the series with HepG2 and in the series on MCF7 were 142% and 50%, respectively.
As for `CC(C)(C)OC(=O)ON(C(=O)CC/C=C/CCC(=O)N(OC(=O)OC(C)(C)C)C(=O)OC(C)(C)C)C(=O)OC(C)(C)C`, the inhibition result in [1] is “inactive”. The Activity entry in series [2] was “Non-toxic”. In addition, the Cell proliferation in the series on HepG2 is 138%; in the series with MCF7, 100%. Moreover, in series [7], the EC50 worked out at 17.7 µM.
Consider `O=C(CCCCCCC(=O)Nc1ccccc1)NO` [VORINOSTAT], for which the Activity entry in [2] is on record as “Non-toxic”.
As for `CC(C)(C)OC(=O)Nc1ccccc1NC(=O)CCCCCCC(=O)Nc1ccccc1NC(=O)OC(C)(C)C`, the inhibition result in [1] is “inactive”. The Cell proliferation in the series with HepG2 worked out at 136%; with MCF7 it was 87%.
For `O=C(CCCCCCC(=O)NO)NO` [SUBEROHYDROXAMIC ACID], the Activity result in series [2] is recorded as “Non-toxic”. Besides, the IC50 against Histone deacetylase 3 came out at 62.6 µM; in [8], 2.03 µM. Moreover, the Cell proliferation is reported as 107% in the series on HepG2 and 93% in the series on MCF7. For the same compound, the EC50 in series [7] came out at 1.1 µM.
Consider `C=CCCC(=O)N(OC(=O)OC(C)(C)C)C(=O)OC(C)(C)C`, for which the Cell proliferation with HepG2 amounted to 110%; in the series with MCF7 it was 94%.
Turning to `CC(C)(C)OC(=O)Nc1ccccc1NC(=O)CC/C=C/CCC(=O)Nc1ccccc1NC(=O)OC(C)(C)C`, in series [1], the inhibition entry was “inactive”.
